In PubChem BioAssay (NCI):
Values joined by “and” are separate entries in the source; they are usually repeats but may differ in a detail not shown here. Equal entries are not always repeated.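 A five-concentration, 48-hour dose response in 96-well plates underlies each endpoint, interpolated linearly between surrounding concentrations. GI50 = concentration required for 50% inhibition of growth. TGI denotes the concentration required for complete inhibition of growth.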

Legend:
Experiment in all cases: NCI anticancer screen, dose series, 48 h
A498 renal = test system: A498 renal
CAKI-1 renal = test system: CAKI-1 renal
HCT-116 colon = test system: HCT-116 colon
HOP-62 NSCLC = test system: HOP-62 NSCLC
LOX IMVI melanoma = test system: LOX IMVI melanoma
MALME-3M melanoma = test system: MALME-3M melanoma
NCI-H460 lung = test system: NCI-H460 lung
SF-268 CNS = test system: SF-268 CNS
SF-295 CNS = test system: SF-295 CNS
TK-10 renal = test system: TK-10 renal

Structure (SMILES) | GI50 (A498 renal) | TGI (A498 renal) | GI50 (CAKI-1 renal) | TGI (CAKI-1 renal) | GI50 (HCT-116 colon) | TGI (HCT-116 colon) | GI50 (HOP-62 NSCLC) | TGI (HOP-62 NSCLC) | GI50 (LOX IMVI melanoma) | TGI (LOX IMVI melanoma) | GI50 (MALME-3M melanoma) | TGI (MALME-3M melanoma) | GI50 (NCI-H460 lung) | TGI (NCI-H460 lung) | GI50 (SF-268 CNS) | TGI (SF-268 CNS) | GI50 (SF-295 CNS) | TGI (SF-295 CNS) | GI50 (TK-10 renal) | TGI (TK-10 renal)
CCCCCCCCCNCCCCCCCCC | 9.79 µM | 24.5 µM | 1.49 µM | 3.09 µM | 1770 nM | 3.16 µM | 1930 nM | 3.38 µM | 1610 nM | 3.02 µM | 1.91 µM | 3.85 µM | 1.93 µM | 3.65 µM | 2.29 µM | 5.28 µM | 1.74 µM | 3.29 µM | 1.75 µM | 3.23 µM
CN(C)CCCN=C(N)N | – | > 100 µM | – | > 100 µM | – | > 100 µM | – | > 100 µM | – | > 100 µM | – | > 100 µM | – | > 100 µM | – | > 100 µM | – | > 100 µM | – | > 100 µM
CC1(C)NCCC[C@]2(C)[C@H]3C=CC4=C5C[C@](C)(CO)CC[C@]5(C)CC[C@@]4(C)[C@]3(C)CC[C@@H]12 | 11.4 µM | 24.5 µM | 3.7 µM | 13.8 µM | 2730 nM | 10.6 µM | 2300 nM | 5.16 µM | 2490 nM | 6.76 µM | 2.64 µM | 8.01 µM | 4.17 µM | 15.2 µM | 3.27 µM | 11.6 µM | 2 µM | 4.04 µM | 2.66 µM | 7.15 µM
COc1cc(Cl)cc(-c2nn(C(=O)NCCN3CCN(C)CC3)cc2-c2ccncc2)c1 | 4.67 µM | 24.7 µM | 4.35 µM | 25.3 µM | 14800 nM | 31.3 µM | 5870 nM | 44.5 µM | 18000 nM | 46.2 µM | 9.28 µM | 43.4 µM | 21 µM | 60.4 µM | 7.35 µM | > 100 µM | 7.73 µM | 46.6 µM | 3.67 µM | > 100 µM
OCC(O)C(O)C(O)C1SC(c2ccccc2)=NN1c1ccccc1 (stereo not given) | – | > 100 µM | – | > 100 µM | – | > 100 µM | – | > 100 µM | – | > 100 µM | – | > 100 µM | – | > 100 µM | – | > 97.3 µM | – | > 100 µM | – | > 95.7 µM
CC(=O)OCSc1ncnc2c1ncn2CN1CCOCC1 | – | > 100 µM | – | > 100 µM | – | > 100 µM | – | > 100 µM | – | 76.6 µM | – | > 100 µM | – | > 100 µM | – | > 100 µM | – | > 100 µM | – | > 100 µM
Cn1ccc2c(NCCN)c3c(c(NCCN)c21)C(=O)c1ccccc1C3=O | 2.31 µM | 4.87 µM | 2.51 µM | 9.48 µM | 398 nM | 4.41 µM | 350 nM | 2.72 µM | 651 nM | 2 µM | 3.67 µM | 15.2 µM | 0.448 µM | 2.24 µM | 1.47 µM | 7.11 µM | 0.968 µM | 5.77 µM | 2.53 µM | 9.96 µM
N#Cc1ccccc1NC(=O)/C(=N\NC(=O)c1ccncc1)C(c1cnc2ccc([N+](=O)[O-])cc2n1)[N+](=O)[O-] (stereo not given) | – | > 100 µM | – | > 100 µM | – | > 100 µM | – | > 100 µM | – | > 100 µM | – | > 100 µM | – | > 100 µM | – | > 100 µM | – | > 100 µM | – | > 100 µM
Clc1ccc(-n2nnc(C3=NCCCN3)c2-c2ccccc2)cc1 | – | > 100 µM | – | > 100 µM | – | > 100 µM | – | > 100 µM | – | > 100 µM | – | > 100 µM | – | > 100 µM | – | > 100 µM | – | > 100 µM | – | > 100 µM
C=C1C[C@@H]2C/C=C/C(=O)C/C(C)=C\C=C\C(=O)O[C@H](C=O)C/C(C)=C/[C@H](C1)O2 | > 28.5 µM | > 55.6 µM | 4.71 µM | 26 µM | 370 nM | 3.86 µM | 1750 nM | 17.3 µM | 711 nM | 13.5 µM | 13.6 µM | 38.4 µM | 3.07 µM | 16.7 µM | 1.39 µM | 19.6 µM | 3.26 µM | 43.2 µM | 3.62 µM | 18 µM
N#CC1=C(N)OC2=C(COc3ccc(F)cc32)C1c1ccc(Cl)cc1 (stereo not given) | 22.2 µM | 67.7 µM | 30.1 µM | > 100 µM | 36300 nM | > 100 µM | 38300 nM | > 100 µM | 35100 nM | > 100 µM | 47.9 µM | 94.9 µM | 27.8 µM | > 100 µM | 42.8 µM | > 100 µM | 19.6 µM | 78.3 µM | 43.1 µM | > 100 µM
O=C(c1cc(F)c(Cl)cc1Cl)N1N=C(c2ccccc2)CC1(O)c1ccccc1 (stereo not given) | 11.8 µM | 24 µM | 31.7 µM | > 100 µM | 10100 nM | 21.7 µM | 13700 nM | 27.6 µM | 17100 nM | 30.8 µM | 25.5 µM | 55.6 µM | 19.1 µM | 36.7 µM | 21.9 µM | 53.2 µM | 32.9 µM | > 100 µM | 30.8 µM | 80.8 µM
c1cc2c(cc1C(N1CCNCC1)N1CCNCC1)OCO2 | – | > 100 µM | – | > 100 µM | – | > 100 µM | – | > 100 µM | – | > 100 µM | – | > 100 µM | – | > 100 µM | – | > 100 µM | – | > 100 µM | – | > 100 µM
CC(=O)OCC1OC(OC2CC3C(C)(C)C(OC(C)=O)CC[C@]3(C)C3CCC45CC4(CC[C@H]5C(C)CC(O)[C@@H](O)C(C)(C)O)[C@]23C)C(O)C(O)C1O (stereo not given in full) | 19.6 µM | 13.2 µM and 35.6 µM | 6.07 µM | 13.4 µM and 17.2 µM | – | 13.8 µM and 21.7 µM | 12100 nM | 11.8 µM and 25.9 µM | 3340 nM | 13 µM and 11.2 µM | 13.2 µM | 13.9 µM and 26 µM | 6.88 µM | 16.2 µM and 19.5 µM | 15.4 µM | 14.6 µM and 28.8 µM | 4.41 µM | 14.2 µM and 14.3 µM | 13.6 µM | 14 µM and 26.5 µM
c1ccc(C(=NNc2nc3ccccc3o2)c2ccccn2)nc1 | 0.117 µM | 0.834 µM and 6.5 µM | 0.0497 µM | 7.87 µM and 1.34 µM | 29.6 nM | – | 53.2 nM | – | 53.9 nM | 2.45 µM and 0.702 µM | 0.134 µM | – | 0.0575 µM and 0.163 µM | 5.22 µM and 1.5 µM | 0.0551 µM | 22.9 µM and 2.38 µM | – | 12.6 µM and 3.7 µM | 0.0673 µM | > 100 µM and 17.5 µM
